This note sets out measurements from patent publication US7772221B2, “Diaminopropane derived macrocycles as inhibitors of β amyloid production” (Bristol-Meyers Squibb Company, priority 2007, dated 2010).

The target in the test is T1, BACE1 enzyme (Homo sapiens, UniProt P56817).
T1 construct: endogenous in cells; washed 48,000 x g membrane pellet / cell homogenate
T1 sequence (P56817 46-501): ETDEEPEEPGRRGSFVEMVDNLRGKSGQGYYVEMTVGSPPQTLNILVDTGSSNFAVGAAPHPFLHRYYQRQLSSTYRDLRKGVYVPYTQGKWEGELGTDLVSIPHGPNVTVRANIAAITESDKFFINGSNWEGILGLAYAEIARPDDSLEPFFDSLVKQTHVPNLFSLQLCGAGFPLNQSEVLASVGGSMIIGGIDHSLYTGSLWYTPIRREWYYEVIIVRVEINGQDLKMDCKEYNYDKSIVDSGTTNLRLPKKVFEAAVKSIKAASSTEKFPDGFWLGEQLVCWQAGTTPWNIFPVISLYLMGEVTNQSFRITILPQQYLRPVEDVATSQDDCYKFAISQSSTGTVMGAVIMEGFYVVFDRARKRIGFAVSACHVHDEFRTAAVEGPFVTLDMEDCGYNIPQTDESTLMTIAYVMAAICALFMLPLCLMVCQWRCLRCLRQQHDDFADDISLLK
The experiment in a line: Radioligand displacement assay with a radiolabeled BACE inhibitor. The format is binding. The settings on record: HEK293-9B.A1 cell homogenate overexpressing BACE1, 1 nM radioligand, pH 5.0, 1.5 hr at 25° C.; read-out: Activity Rating (activity based on IC50 values). From the text: There are a number of methods by which inhibitors of the BACE enzyme can be identified experimentally. The enzyme can be obtained from membrane samples from natural tissues or cultured cells or can be expressed recombinantly in a host cell by well known methods of molecular biology. The whole enzyme or a portion thereof can be expressed, for example, in bacterial, insect or mammalian cells to obtain a catalytically active enzyme species. The enzymatic activity and/or ligand binding capability of the enzyme can be assessed within these membrane samples, or the enzyme can be purified to varying extents. As an illustrative example, the nucleic acid sequence encoding the pro and catalytic domains of human BACE can be appended on the 5′ end with an untranslated and signal sequence from the gene for acetylcholinesterase, and on the 3′ end with a sequence encoding a poly-histidine tag. This cDNA can then be expressed in Drosophila melanogaster S2 cells in which the signal and pro sequences of the transcribed/translated protein are removed by cellular proteases and the catalytic domain, appended by a C-terminal poly-histidine tag, is secreted out into the cellular medium. The enzyme can then be purified from the culture medium by nickel affinity chromatography by methods well known to those trained in the art [Mallender, W. et al., “Characterization of recombinant, soluble beta-secretase from an insect cell expression system.” Mol. Pharmacol. 2001, 59: 619-626]. Similar strategies for expressing and purifying various forms of BACE in bacterial, mammalian and other cell types would be known to one skilled in the art. A preferred method for determining the potency of a test compound in binding to the BACE enzyme is by monitoring the displacement of a suitable radioligand.
Radioligand displacement assays with a radiolabeled BACE inhibitor (WO 2004 013098, compound 3, where the methoxy group is substituted for C(^3H)3) were carried out using standard methods (Keen, M. (1999) in Receptor Binding Techniques (Walker, J. M. ed) p. 106 Humana Press, Totowa, N.J.). The HEK293-9B.A1 cell line, which overexpresses the BACE1 enzyme, was derived from HEK293 cells (Simmons, N. L. (1990) A cultured human renal epithelioid cell line responsive to vasoactive intestinal peptide. Exp. Physiol. 75:309-19.) by RAGE™ (Harrington, J. J. et al. (2001) Creation of genome-wide protein expression libraries using random activation of gene expression. Nat. Biotechnol. 19:440-5.; U.S. Pat. Nos. 6,410,266 and 6,361,972). T225 flask cultures of HEK293-9B.A1 were grown to 80% confluency in DMEM supplemented with 2 mM L-glutamine, 10 μg/mL penicillin, 10 μg/mL streptomycin, 3 μg/mL puromycin, 100 nM methotrexate, and 10% fetal bovine serum (Invitrogen, Carlsbad, Calif.), harvested, and resuspended at 2×10^8 cells per 10 mL of lysis buffer consisting of 50 mM HEPES pH 7.0 containing a protease inhibitor cocktail of AEBSF 104 μM, aprotinin 80 nM, leupeptin 2 μM, bestatin 4 μM, pepstatin A 1.5 μM, and E-64 1.4 μM (0.1% of protease inhibitor cocktail P8340, Sigma-Aldrich, St. Louis, Mo.) at 4° C. The resuspended cells were homogenized using a Polytron (Brinkman, Westbury, N.Y.) at setting 6 for 10 sec., then centrifuged at 48,000×g for 10 min. The resulting pellet was washed by repeating the resuspension, homogenization and centrifugation steps. The final pellet was resuspended in buffer at 4° C. to yield a total protein concentration of 5 mg/mL, then aliquots were frozen in liquid nitrogen for further storage at −70° C. Immediately before carrying out a binding assay, an aliquot of cell homogenate was thawed and diluted to a concentration of 100 μg/mL in assay buffer consisting of 50 mM HEPES pH 5.0 and 0.1% CHAPSO. […]
As for `CCCC[C@H](C)C(=O)N(C)[C@H]1CC=CCO[C@H]2CC[C@H](C2)NC[C@@H](O)[C@H](Cc2cc(F)cc(F)c2)NC1=O` (racemic) [Example 25, (S)-2-methyl-hexanoic acid [(1R,4R,5S,8S,14S)-5-(3,5-difluoro-benzyl)-4-hydroxy-7-oxo-13-oxa-2,6-diaza-bicyclo[12.2.1]heptadec-10-en-8-yl]-methyl-amide and (S)-2-methyl-hexanoic acid [(1S,4R,5S,8S,14R)-5-(3,5-difluoro-benzyl)-4-hydroxy-7-oxo-13-oxa-2,6-diaza-bicyclo[12.2.1]heptadec-10-en-8-yl]-methyl-amide], the IC50 was in the range of 10 to 500 nM.
Turning to `CCCCCS(=O)(=O)N(C)[C@H]1CC=CCO[C@@H]2Cc3ccc(OC)cc3[C@H]2NC[C@@H](O)[C@H](Cc2ccccc2)NC1=O` (racemic) [Example 26, pentane-1-sulfonic acid ((1R,7S,10S,11R,14R)-10-benzyl-11-hydroxy-17-methoxy-8-oxo-2-oxa-9,13-diaza-tricyclo[12.7.0.0^15,20]henicosa-4,15(20),16,18-tetraen-7-yl)-methyl-amide and pentane-1-sulfonic acid ((1S,7S,10S,11R,14S)-10-benzyl-11-hydroxy-17-methoxy-8-oxo-2-oxa-9,13-diaza-tricyclo[12.7.0.0^15,20]henicosa-4,15(20),16,18-tetraen-7-yl)-methyl-amide], the concentration for half-maximal inhibition (IC50) was over 500 nM.
As for `COc1ccc2c(c1)[C@@H]1C[C@H]2NCCCC[C@H](N(C)S(=O)(=O)CCC(F)(F)F)C(=O)N[C@@H](Cc2ccccc2)[C@H](O)CN1` (single isomer, unassigned) [Example 52], the figure is 10 to 500 nM; as for `COc1ccc2c(c1)[C@@H]1C[C@H]2OCC=CC[C@H](N(C)C(=O)C(C)CC(F)(F)F)C(=O)N[C@@H](Cc2cc(F)cc(F)c2)[C@H](O)CN1` (single isomer, unassigned; diastereomer a) [Example 21], under 10 nM; as for `COc1ccc2c(c1)[C@@H]1C[C@H]2COCC=CC[C@H](N(C)S(=O)(=O)CCC(F)(F)F)C(=O)N[C@@H](Cc2ccccc2)[C@H](O)CN1` (single isomer, unassigned; isomer a) [Example 35], under 10 nM.
As for `CCCC[C@H]1CC=CCO[C@@H]2C[C@H](NC[C@@H](O)[C@H](Cc3cc(F)cc(F)c3)NC1=O)c1cc(OC)ccc12` [Example 8, (1S,4R,5S,8S,14R)-8-butyl-5-(3,5-difluoro-benzyl)-4-hydroxy-18-methoxy-13-oxa-2,6-diaza-tricyclo[12.6.1.0^15,20]henicosa-10,15(20),16,18-tetraen-7-one], the figure is over 500 nM.
As for `CCCC[C@H](C)C(=O)N(C)[C@H]1CC=CCOC[C@@H](c2ccccc2)NC[C@@H](O)[C@H](Cc2cc(F)cc(F)c2)NC1=O` [Example 18, (S)-2-methyl-hexanoic acid [(3R,6R,7S,10S)-7-(3,5-difluoro-benzyl)-6-hydroxy-9-oxo-3-phenyl-1-oxa-4,8-diaza-cyclotetradec-12-en-10-yl]-methyl-amide], the figure is over 500 nM.
With `CCCC(CCC)C(=O)N(C)[C@H]1CC=CCOCCC(c2cccc(OC)c2)NC[C@@H](O)[C@H](Cc2ccccc2)NC1=O` (stereo partly drawn) [Example 19, N-((7R,8S,11S)-8-benzyl-7-hydroxy-4-(3-methoxyphenyl)-10-oxo-1-oxa-5,9-diazacyclopentadec-13-en-11-yl)-N-methyl-2-propylpentanamide], the IC50 was over 500 nM.
As for `CCOc1ccsc1C(=O)N(C)[C@H]1CC=CCO[C@@H]2C[C@H](NC[C@@H](O)[C@H](Cc3ccccc3)NC1=O)c1cc(OC)ccc12` [Example 20, 3-ethoxy-thiophene-2-carboxylic acid ((1S,4R,5S,8S,14R)-5-benzyl-4-hydroxy-18-methoxy-7-oxo-13-oxa-2,6-diaza-tricyclo[12.6.1.0^15,20]henicosa-10,15(20),16,18-tetraen-8-yl)-methyl-amide], the figure is 10 to 500 nM; as for `CCCCCS(=O)(=O)N(C)[C@H]1CCCCO[C@H]2Cc3ccc(OC)cc3[C@H]2NC[C@@H](O)[C@H](Cc2ccccc2)NC1=O` [Example 29, pentane-1-sulfonic acid ((1S,7S,10S,11R,14R)-10-benzyl-11-hydroxy-17-methoxy-8-oxo-2-oxa-9,13-diaza-tricyclo[12.7.0.0^15,20]henicosa-15(20),16,18-trien-7-yl)-methyl-amide], 10 to 500 nM.
Next, `CCCCCS(=O)(=O)N(C)[C@H]1CC=CCO[C@@H]2C[C@H](NC[C@@H](O)[C@H](Cc3cc(Cl)cc(Cl)c3)NC1=O)c1cc(OC)ccc12` [Example 43]: under 10 nM.
Next, `CCCC[C@H](C)C(=O)N(C)[C@H]1CCCCO[C@@H]2C[C@H](NC[C@@H](O)[C@H](Cc3cc(Cl)cc(Cl)c3)NC1=O)c1cc(OC)ccc12` [Example 49, (S)-2-methyl-hexanoic acid ((1S,4R,5S,8S,14R)-5-(3,5-dichloro-benzyl)-4-hydroxy-18-methoxy-7-oxo-13-oxa-2,6-diaza-tricyclo[12.6.1.0^15,20]henicosa-15(20),16,18-trien-8-yl)-methyl-amide]: under 10 nM.
With `COc1ccc2c(c1)[C@@H]1CC2N(C)CCCCC[C@H](N(C)S(=O)(=O)CCC(F)(F)F)C(=O)N[C@@H](Cc2ccccc2)[C@H](O)CN1` [Example 56, 3,3,3-trifluoro-propane-1-sulfonic acid ((1S,4R,5S,8S)-5-benzyl-4-hydroxy-19-methoxy-14-methyl-7-oxo-2,6,14-triaza-tricyclo[13.6.1.0^16,21]docosa-16(21),17,19-trien-8-yl)-methyl-amide], the IC50 was 10 to 500 nM.
As for `CN([C@H]1CCC=CCO[C@@H]2C[C@H](NC[C@@H](O)[C@H](Cc3ccccc3)NC1=O)c1cc(Br)ccc12)S(=O)(=O)CCC(F)(F)F` [Example 61, 3,3,3-trifluoro-propane-1-sulfonic acid ((1S,4R,5S,8S,15R)-5-benzyl-19-bromo-4-hydroxy-7-oxo-14-oxa-2,6-diaza-tricyclo[13.6.1.0^16,21]docosa-11,16(21),17,19-tetraen-8-yl)-methyl-amide], the figure is under 10 nM; as for `CC(C)CCc1ccc2c(c1)[C@@H]1C[C@H]2OCC=CCCCC(=O)N[C@@H](Cc2cc(F)cc(F)c2)[C@H](O)CN1` [Example 69, (1S,4R,5S,15R)-5-(3,5-difluoro-benzyl)-4-hydroxy-19-(3-methyl-butyl)-14-oxa-2,6-diaza-tricyclo[13.6.1.0^16,21]docosa-11,16(21),17,19-tetraen-7-one], 10 to 500 nM; as for `COc1ccc2c(c1)[C@@H]1C[C@H]2OCC=CCC[C@H](N(C)S(=O)(=O)CCC(F)(F)F)C(=O)N[C@@H](CC(C)C)[C@H](O)CN1` [Example 70, 3,3,3-trifluoro-propane-1-sulfonic acid ((1S,4R,5S,8S,15R)-4-hydroxy-5-isobutyl-19-methoxy-7-oxo-14-oxa-2,6-diaza-tricyclo[13.6.1.0^16,21]docosa-11,16(21),17,19-tetraen-8-yl)-methyl-amide], under 10 nM.
Turning to `CC(C)Oc1ccc2c(c1)[C@@H]1C[C@H]2OCC=CCCCC(=O)N[C@@H](Cc2cc(F)cc(F)c2)[C@H](O)CN1` [Example 78, (1S,4R,5S,15R)-5-(3,5-difluoro-benzyl)-4-hydroxy-19-isopropoxy-14-oxa-2,6-diaza-tricyclo[13.6.1.0^16,21]docosa-11,16(21),17,19-tetraen-7-one], the IC50 was under 10 nM.
Next, `CC(C)C[C@@H]1NC(=O)CCCC=CCO[C@@H]2C[C@H](NC[C@H]1O)c1cc(OC(C)C)ccc12` [Example 79, (1S,4R,5S,15R)-4-hydroxy-5-isobutyl-19-isopropoxy-14-oxa-2,6-diaza-tricyclo[13.6.1.0^16,21]docosa-11,16(21),17,19-tetraen-7-one]: over 500 nM.

As usually defined, the IC50 is the point on the concentration scale where inhibition reaches its midpoint.
